# The source made the active and inactive calls. The rule behind the calls is not given here.
# Key:
# [1] = system: Staphylococcus epidermidis; assay: Antibacterial activity against oxacillin-sensitive Staphylococcus epidermidis ATCC 12228 assessed as reduction in number of viable biofilm associated bacteria in presence of dispersin B; type: functional, organism-based
# [2] = system: Staphylococcus epidermidis; assay: Antibacterial activity against oxacillin-sensitive Staphylococcus epidermidis ATCC 12228 at 0.25 ug/ml after 18 hrs; type: functional, organism-based
compound,measurement,setting,value
Cn1nnnc1SCC1=C(C(=O)O)N2C(=O)[C@@H](NC(=O)[C@H](OC=O)c3ccccc3)[C@H]2SC1,Activity,[1],Active
same,Activity,[2],Active

# From ChEMBL document CHEMBL1155171, “Synergistic activity of dispersin B and cefamandole nafate in inhibition of staphylococcal biofilm growth on polyurethanes” (Antimicrob Agents Chemother, 2007)
